From patent publication US20030013643A1, “Prevention and treatment of streptococcal and staphylococcal infection” (priority 2000, published 2003) come the findings set out here.

For assay [1], the system named is GAS. Briefly: GAS attachment to murine keratinocyte cell line PAM2.12 with exogenous hyaluronic acid. It is filed as cell-based, Streptococcus pyogenes. Conditions: control polysaccharide, concentration printed 1 /ml. The method, then: For bacterial adherence assays, keratinocytes were seeded at 10^5 cells per well in collagen-coated tissue culture wells (Nalge Nunc International, Naperville, Ill.), incubated for 3 days at 34° C. in 8% CO2, washed, and overlaid with medium containing 10^6 CFU of GAS per well. After incubation for 1 hour at 34° C. in 8% CO2 the keratinocyte monolayers were washed twice to remove nonadherent bacteria, then the number of cell-associated bacteria was determined by quantitative culture after releasing the keratinocytes with try spin and lysing them in sterile water, experiments testing the effects of exogenous hyaluronic acid on GAS adherence were performed using the mouse keratinocyte cell line, PAM 2.12 (Song, I. S. 2000, Exp. Dermatol. 9:42-52). Cells were seeded in collagen-coated tissue culture wells at 10^5 cells per well, cultured for 3 days at 37° C. in 5% CO2, then inoculated with 10^6 CFU of GAS per well in medium containing exogenous hyaluronic acid (from rooster comb, Sigma Chemicals, St. Louis, Mo.), no inhibitor, or a control polysaccharide, alginic acid, a high-molecular-weight polymer of mannuronic acid and guluronic acid (Protonal Durvillea Alginate, Pronova. Biopolymer, Inc., Portsmouth, N.H.). Cells were incubated for 45 minutes at 37° C. in 5% CO2, then processed for enumeration of adherent bacteria as described above. In experiments to test whether exogenous hyaluronic acid could promote dissociation of GAS attached to keratinocytes, GAS were allowed to attach to keratinocytes in the absence of inhibitor; after 45 minutes, the medium was removed and replaced with fresh medium containing hyaluronic acid, no inhibitor, or alginic acid. After 45 minutes of incubation, the number of adherent bacteria was enumerated as described above.
To investigate the specificity of the interaction between the GAS capsule and CD44 on epithelial cells, the ability of exogenous hyaluronic acid to compete with GAS for binding to murine keratinocytes was examined. Addition of exogenous hyaluronic acid to concentration 1 mg/ml[…], inhibited GAS attachment to the murine keratinocyte cell line PAM2.12 by >95% (P<0.03, FIG. 5). A concentration of 1 /ml alginic acid, another high molecular weight acidic polysaccharide, had no effect, supporting the hypothesis that adherence depends on a specific interaction between the GAS hyaluronic acid capsule and CD44 .
In addition to the 1 mg/ml concentration of hyaluronic acid, additional trials were performed as indicated above, with a range of concentrations of hyaluronic acid added to the cells. The concentrations tested included 4 mg/ml, 2 mg/ml, 1 mg/ml, 0.75 mg/ml, 0.5 mg/ml, 0.25 mg/ml and 0.1 mg/ml. The hyaluronic acid concentrations from 4 mg/ml to 0.25 mg/ml blocked GAS binding by greater than 70%. Hyaluronic acid concentrations from 4 mg/ml to 0.5 mg/ml blocked GAS binding by greater than 80% (FIG. 6).

For assay [2], the system named is wild-type GAS, strain 950771. Briefly: GAS translocation through polarized human keratinocyte monolayers. It is filed as cell-based, Streptococcus pyogenes. The settings on record: for blocking of translocating GAS: pre-treated 30 minutes with 2 mg/ml, compared to untreated monolayers. As for the experimental part:
Human keratinocytes were cultured on 3.0 μm filters to allow polarization and establishment of functional intercellular tight junctions. Cells were infected as described previously with wild-type GAS, strain 950771. To assess the ability of exogenously added HA to inhibit the translocation of GAS through the keratinocyte monolayer, cells were pre-treated for 30 minutes with either 2 mg/ml of hyaluronic acid (HA) or another acidic polysaccharide, alginate (AL), at the same concentration. Aliquots of media from the lower chamber of infected keratinocyte monolayers were cultured on blood agar plates at 1 and 2 hours after inoculation with bacteria to assess the number of translocating bacteria. […] In contrast only 20% and 25% of the wild-type bacteria were blocked by AL at 1 and 2 hours, respectively.
(§1) GAS strains were 950771, an M-type 3 strain originally isolated from a child with necrotizing fasciitis, and 188, an isogenic acapsular mutant derived from 950771 (Ashbaugh, C. D., et al., (1998) J. Clin. Invest. 102, 550-560). Bacteria were cultured in Todd Hewitt broth (Difco, Sparks, Md.) to early exponential phase. For preparation of polarized keratinocyte monolayers, human squamous cell carcinoma cell line, SCC13, derived from cheek epidermis (Cline, P. R. & Rice, R. H. (1983) Cancer Res. 43, 3203-3207) was cultured to confluence in serum-free keratinocyte medium (Gibco BRL, Rockville, Md.) supplemented with 50 μg/ml bovine pituitary extract, 0.1 ng/ml epidermal growth factor and 0.3 mM calcium chloride (c-SFM). Certain experiments were performed also using cell monolayers prepared from OKP7 primary human keratinocytes (Crowe et al. (1991) Differentiation 48, 199-208). Keratinocytes were seeded at 5×10^5 cells per well onto polycarbonate Transwell membrane supports (12-well plates, 3.0 μm pore size; Costar, Corning, N.Y.) and cultured for 6-10 days at 37° C. with 5% CO2 in c-SFM, with daily medium changes. Once confluent, the integrity of the monolayer was assessed routinely by measuring permeability to sodium fluorescein (Tchao, R. (1988) Alternative Methods in Toxicology (eds. Goldberg, A. M.) 271-283 (Ann Liebert, N.Y.) and, in some experiments, by measuring transepithelial electrical resistance (McNamara, B. P., et al. (2001) J Clin Invest 107, 621-9).
Keratinocyte monolayers on Transwells were inoculated with GAS at a multiplicity of infection of 10 per keratinocyte. Monolayers were incubated at 37° C. with 5% CO2. The keratinocyte medium in the upper chamber was replaced two hours after adding GAS, and the Transwell inserts containing the keratinocytes were moved to new wells containing fresh medium every 2 hours to prevent overgrowth of translocated bacteria. Translocation was assessed by quantitative cultures of medium from the lower chamber at 2 hour intervals.
As a model of the movement of GAS from the pharyngeal mucosa or skin surface into underlying tissue, GAS translocation was studied in vitro through keratinocyte monolayers. Two hours after inoculation onto the surface of a confluent keratinocyte monolayer, wild-type GAS was detected in the culture medium below the membrane support, indicating migration of the organisms through the monolayer. At each of several intervals after inoculation, approximately 20 to 100 times as many GAS were recovered below monolayers inoculated with wild-type GAS compared to those inoculated with the acapsular mutant strain.(Figure 12a). […] Compared to wild-type GAS strain 950771, the efficiency of translocation was similar for wild-type GAS strains 87-282, a highly encapsulated M-type 18 strain, and for DLS003, a poorly encapsulated M-type 3 strain. Translocation of wild-type GAS was reduced by 78% at 1 hour in experiments in which the keratinocyte monolayers were pretreated with monoclonal antibody IM7.8.1 to block interaction of the GAS capsule with CD44 . […]

The test system of assay [3] is GAS. Briefly: GAS translocation through abraded human skin equivalent. The settings on record: pre-treated at 2 mg/ml for 1 hour; 4 hour infection period. It is filed as cell-based, Streptococcus pyogenes. As for the experimental part:
To examine GAS translocation in a model system similar to normal human skin, we utilized pseudo-organ cultures of human skin equivalent. This material is made by constructing a “dermis” that consists of human fibroblasts cultured in a collagen matrix; human foreskin keratinocytes are seeded on top of the dermal equivalent and cultured under conditions that promote differentiation into a stratified squamous epithelium with a stratum comeum. The histology of the human skin equivalent is very similar to that of normal human skin except for the absence of non-keratinocyte elements such as blood vessels and hematopoietic cells, nerves, and hair follicles. Since intact human skin is highly resistant to GAS infection, we simulated minor trauma to the superficial epidermis by abrading the surface of the skin equivalent with a cytology brush to introduce breaks in the stratum corneum. GAS were inoculated onto the surface of abraded skin equivalent that had either been pre-treated with nothing, HA, or AL at 2 mg/ml for 1 hour and translocation through the tissue was monitored by culture of GAS from the basal surface of the skin equivalent at intervals. As depicted in FIG. 10, HA inhibited translocation GAS by 91% (solid bars). In comparison the AL control prevented only 14% of bacteria from translocating through the skin equivalent during the 4 hour infection period. […]

Assay [4] relates to human keratinocytes. The experiment in a line: Confocal microscopy of actin projections / lamellipodia in keratinocytes exposed to wild-type GAS. It counts as cell-based. Conditions: incubation of keratinocytes with inhibitor. As for the experimental part:
as §1, with “Keratinocytes were seeded at 5×10^5 cells per well onto polycarbonate Transwell membrane supports (12-well plates, 3.0 μm pore size; Costar, Corning, N.Y.) and cultured for 6-10 days at 37° C. with 5% CO2 in c-SFM, with daily medium changes.” left out, “621-9). […]” for “621-9).”

The test system of assay [5] is human keratinocytes. Briefly: Immunofluorescent staining of ZO-1 and E-cadherin at intercellular junctions of keratinocytes exposed to GAS. Conditions: pretreatment of keratinocytes; wild-type GAS. It counts as cell-based. The method, then:
Keratinocyte monolayers were fixed with 4% paraformaldehyde in phosphate buffered saline (PBS), washed, permeabilized with 0.1% Triton X-100 in PBS, then incubated with 0.5% bovine serum albumin in PBS to block non-specific binding sites prior to antibody staining. Primary antibodies included rabbit IgG antibody to GAS group A carbohydrate (ImmuCell, Portland, Me.) at 5 μg/ml, rat monoclonal anti-mouse CD44 (clone IM7.8. 1) (Schrager, H. M., et al., (1998) J. Clin. Invest. 101, 1708-1716) at 15 μg/ml, goat IgG anti-ezrin at 2 μg/ml (Santa Cruz Biotechnology, Santa Cruz, Calif.), goat IgG anti-Rac1 at 2 μg/ml (Santa Cruz Biotechnology), mouse anti-phosphotyrosine at 2 μg/ml (PY-Plus, Zymed Laboratories, Inc., San Francisco, Calif.), rabbit anti-ZO-1 at 2 μg/ml (Zymed), goat anti-E-cadherin at 2 μg/ml (Santa Cruz Biotechnology), and mouse anti-myc monoclonal antibody 9E10 (Santa Cruz Biotechnology). Secondary antibodies included, as appropriate, Texas red- or Alexa 660-conjugated anti-rabbit IgG (Molecular Probes, Eugene, Oreg.), Alexa 568-conjugated anti-rabbit, anti-goat, or anti-rat IgG (Molecular Probes), and FITC-conjugated anti-goat or anti-mouse IgG (Sigma), each diluted 1:250 in 0.5% BSA/PBS. Cellular actin was labeled with 165 nm phalloidin conjugated to Oregon green 514 or to Alexa 488 (Molecular Probes). […]

alginic acid: the “effect on GAS attachment to PAM2.12” value in the assay with GAS [1] was “no effect”. Also, the results for the “blocking of translocating GAS” value in assay [2] (1 hour after inoculation) and in assay [2] (2 hours after inoculation) were 20% and 25%, respectively. The “inhibition of translocation of GAS through skin equivalent” value in the assay on GAS [3] worked out at 14%.
Regarding `O=c1c(-c2ccc(O)cc2)coc2cc(O)cc(O)c12` [genistein], the “reduction of maximum number of translocated GAS” value in assay [2] (250 μM, at 4 hours) was “approximately 80%”. In addition, the “earliest detectable translocation of wild-type GAS” value in assay [2] (250 μM, delayed from 30 min without inhibitor) was found to be 1 h. The “formation of lamellipodia in response to GAS” value with human keratinocytes [4] is listed as “inhibit formation of lamellipodia”. Also, the “redistribution (loss) of ZO-1 and E-cadherin from intercellular junctions” value in the assay with human keratinocytes [5] is recorded as “prevented”.
